Assays:
[1] = biological target: T1, glucocorticoid receptor (GR) (Homo sapiens, UniProt P04150); assay: Glucocorticoid receptor binding
T1 sequence (P04150 1-777): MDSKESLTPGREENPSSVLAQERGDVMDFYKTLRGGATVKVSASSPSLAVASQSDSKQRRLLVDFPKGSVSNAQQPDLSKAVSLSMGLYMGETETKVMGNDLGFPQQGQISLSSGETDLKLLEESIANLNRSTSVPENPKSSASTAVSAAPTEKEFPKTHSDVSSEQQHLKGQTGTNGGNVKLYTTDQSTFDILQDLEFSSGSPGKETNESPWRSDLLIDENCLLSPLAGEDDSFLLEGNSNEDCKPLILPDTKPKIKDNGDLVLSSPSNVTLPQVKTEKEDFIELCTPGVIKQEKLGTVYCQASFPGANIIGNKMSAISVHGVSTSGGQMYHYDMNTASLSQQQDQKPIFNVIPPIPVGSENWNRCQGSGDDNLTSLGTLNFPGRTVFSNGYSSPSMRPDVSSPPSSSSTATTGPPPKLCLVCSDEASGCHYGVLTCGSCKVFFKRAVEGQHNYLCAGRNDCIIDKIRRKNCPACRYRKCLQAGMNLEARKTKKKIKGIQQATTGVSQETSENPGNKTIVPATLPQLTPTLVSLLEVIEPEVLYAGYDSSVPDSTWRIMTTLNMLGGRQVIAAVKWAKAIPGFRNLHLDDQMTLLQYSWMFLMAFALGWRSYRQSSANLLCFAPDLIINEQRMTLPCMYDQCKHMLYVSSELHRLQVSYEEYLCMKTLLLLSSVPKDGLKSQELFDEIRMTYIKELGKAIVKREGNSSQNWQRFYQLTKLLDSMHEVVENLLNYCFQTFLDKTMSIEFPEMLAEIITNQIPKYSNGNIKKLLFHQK

[2] = tested on: rat mammary epithelium; assay: Bioassay on proliferating/differentiating effects in the rat mammary epithelium (whole mount staining); type: in vivo
Experimental: The object of this test is to evaluate the effect of progestins on the development of the mammary gland, in particular on the formation of terminal end buds in the mammary gland in estrogen primed rats.
Premature female rats (Wistar Han, SPF) are ovariectomized at the age of 21 days, 4 to 6 days before treatment start. The animals are treated for 6 days with standard estrogen (estrone, 70 µg/kg) and the test progestin (application volume: 0.1 ml/50g body weight; vehicle: benzylbenzoate/castor oil (1+4 v/v); subcutaneous). Control groups are e.g.: vehicle, estrone without progestin, estradiol together with a known progestin, e.g. R5020 (promegestone). After the 6-day treatment the animals are killed with carbon dioxide.
For the whole mount staining, animals are shaved in the left abdominal inguinal mammary region, which is cut from the body together with the skin. For the histological/immunohistochemical analyses the right abdominal inguinal mammary gland is cut from the body together with the connective tissue adhered thereto and fixed in 3.7 % formalin in PBS (phosphate buffer saline; without Ca^2+/Mg^2+).
The preparations are fixed over night in alcohol-formalin according to the method of Tellyesniczky (see below). Then the mammary gland tissue and subcutis adhered thereto are stripped from the cutis and the preparations are again fixed over night. The further steps are as follows: ethanol 70 %: 1.5 hours; acetone: 3 × 1.5 hours; acetone: over night; isopropanol: 1.5 hours; ethanol 96 %: 2 hours; hematoxylin-iron: 3 hours; VE water: first rinse the preparations and then 2 × 0.5 hours; ethanol 70 %: over night; ethanol 80 %: 1.5 hours; ethanol 96 %: 1.5 hours; isopropanol: 1.5 hours. The preparations are then moved to petri dishes and left in toluene for approximately 1 hour, i.e. until they have stopped to swim up. Then the preparations are treated with cedarwood oil (Merck, no. 1.06965). The incubation times above are minimum times and can be extended. In particular, incubation in ethanol 70 % after fixation can be extended to at least 2.5 weeks.
Preparation of the solutions necessary for the whole mount staining: • a) Alcohol-formalin according to Tellyesniczky: formaldehyde 37%: 81.8 ml, ethanol 70 %: 1636 ml, glacial acetic acid (to be added shortly before use): 81.8 ml (total: 1800 ml). • b) Hematoxylin mother solution: Hematoxylin (Merck, no. 1.15938): 10 g, ethanol 96 %: 100 ml. The solution must stand for 48 hours at 37 °C before use. It can be kept in a dark place for almost unlimited time. • c) Hematoxylin-iron solution for use: hematoxylin mother solution (filtered): 15.2 ml, ethanol 96 %: 1374 ml, FeCl3 x 6 H2O (s. 4): 91.1 ml, 1 mol/l HCl: 220 ml (total: 1700 ml); adjustment to a pH of 1.25 with 2mol/l NaOH. • d) FeCl3 x 6 H2O solution: FeCl3 x 6 H2O (Merck, no. 1.03943): 1.07 g, VE water: 90.2 ml, HCl: 37 %: 0.92 ml (total: 91.1 ml).
By means of a 40-fold magnification, the terminal end buds near the nipple in direction of the tail are counted. The area to be investigated should be about 1.8 mm^2. For well-differentiated preparations this area may be reduced, with at least 250 buds to be counted. After counting, the number of end buds per 1 mm^2 is calculated. […]

[3] = tested on: orchidectomized rats; assay: Androgenic / anti-androgenic activity in orchidectomized rats (prostate weight, seminal vesicle); type: in vivo, rat; conditions: prostate weight and seminal vesicle
Description: The absence of androgenic as well as anti-androgenic activity in vivo was confirmed by tests performed with orchidectomized rats (change in prostate weight and in the seminal vesicle).

## O=C1OCc2cc(NC(=O)C(O)(CC3(c4cc(C(F)(F)F)ccc4F)CC3)C(F)(F)F)ccc21 (single isomer, unassigned; (+)) [((+)-1), (+)-5-{2-hydroxy-3-[1-(2-fluoro-5-trifluoromethylphenyl)-cyclopropyl]-2-trifluoromethyl-propionylamino}-phthalide]
[1]
  affinity for the glucocorticoid receptor (GR): very high
[2]; median of three independent tests
  Mammary gland, whole mount staining (rat) [equi-efficient dose], factor compared to R5020: ca. 1
[2]; rat, amount suitable for maintaining pregnancy
  effects at the mammary gland: no effects at the mammary gland are observed
[2]; terminal end buds, dose pair with 0.1 mg/kg R5020, independent test
  Mammary gland, whole mount staining (rat) [equi-efficient dose]: 0.03 mg/kg
[3]
  androgenic activity in vivo: no androgenic
  anti-androgenic activity in vivo: no anti-androgenic activity

From patent EP1344776A1, “5- 2-hydroxy-3-[1-(3-trifluoromethylphenyl)-cyclopropyl]-propionylamino -phtalide and 6- 2-hydroxy-3-[1-(3-trifluoromethylphenyl)-cyclopropyl]-propionylamino -4-methyl-2,3-benzoxazin-1-one derivatives with progesterone receptor modulating activity for use in fertility control, hormone replacement …” (Schering Aktiengesellschaft, priority 2002, dated 2003)
